Source: patent US10463664B2, “Inhibitors of HSV nucleotidyl transferases and uses therefor” (Saint Louis University, priority 2013, dated 2019)

Legend:
[1] = system: HSV-1; experiment: Pre-incubation of viral inoculum with compound (virus infectivity); assay type: cell-based, herpes simplex virus 1
Method: Tests were carried out to determine if the early event inhibited by compound #46 was a pre- or post-entry event. A high titer HSV-1 stock was pre-incubated with compound #46 at 50 μM or was incubated with an equivalent amount of DMSO-containing medium for 1 hour at 37° C. Then the viral stocks with compound or DMSO were diluted such that Vero cells were infected at a moi of 0.1 as usual. […] A standard inhibition assay using compound #46 at 50 μM was conducted in parallel as a positive control, and viral titers were determined by plaque assay at 24 hours post-infection. The standard conditions of infection at 50 μM caused a 5.5 log10 suppression of HSV-1 replication relative to the DMSO pre-treatment sample.

[2] = system: HSV-2; experiment: Time-of-addition experiment, HSV-2 in Vero cells; assay type: cell-based, herpes simplex virus 2; settings: 10 μM
Method: The inventors next varied the time post-infection that the inhibitors were added to begin defining the stage(s) of viral replication targeted by the inhibitors. […] The cells were incubated until 24 hours post-infection and then infectious viral titers were determined by plaque assay and viral DNA production was determined by quantitative PCR (FIG. 5).

[3] = Neutral red cytotoxicity assay in uninfected HFFs (14 day, with CPE assay); assay type: cell-based, human; settings: human, uninfected human foreskin fibroblasts (HFFs)
Method: Anti-HCMV CPE inhibition and cytotoxicity assays. HFFs were infected with HCMV strain AD169 in the presence of serial dilutions of the compounds from 0.0192 to 60 μM. Fourteen days later the monolayers were stained with crystal violet, and retained cell density was quantified using a multiplate autoreader (BioTek). Cytotoxicity was measured the same way, except that the cells were uninfected and neutral red internalization by viable cells was measured.
Antiviral efficacy against HCMV. The ability of select HSV inhibitors to inhibit replication of another major human herpesvirus pathogen, human cytomegalovirus (HCMV) (65) was tested. This was based on the inhibitors strong suppression of HSV-1 and HSV-2 and the prediction that other members of the herpesvirus family would be sensitive to NTS inhibitors due to their shared DNA replication mechanism. Compounds #41, 46, 49, 55, 56, and 59 and the FDA-approved anti-HCMV drug ganciclovir were evaluated with crystal violet CPE and neutral red toxicity assays in HFFs. HFFs were infected with HCMV in the presence of serial dilutions of the compounds that were most inhibitory for HSVs. After 14 days the monolayers were stained and cell density was determined by OD reading. Compound cytotoxicity for uninfected cells was determined in the same manner except that neutral red uptake by viable cells was measured. […] The TI values for the four NTS inhibitors of HCMV ranged from 4 for compound #41 to 38 for #56. Therefore, NTS inhibitors can suppress HCMV replication in addition to inhibiting the HSVs.

[4] = Neutral red cytotoxicity assay in HFFs (10 day, with plaque reduction assay); assay type: cell-based, human; settings: human, uninfected primary human foreskin fibroblasts (HFFs), 10 day assay
Method: HCMV plaque reduction EC50 and toxicity assays. Low passage primary HFFs were infected with HCMV strain AD169 in the presence of serial dilutions of the compounds from 0.032 to 100 μM. Ten days later the monolayers were stained with 1% neutral red solution in PBS. After rinsing, plaques were counted using a stereomicroscope and the EC50 was interpolated from the data. Cytotoxicity was measured using a plate-based assay in which compounds were added to HFFs at 0.032 to 100 μM. At the end of the incubation period, plates were stained for 1 h with a neutral red solution in PBS. The stain was then removed, the plates rinsed in PBS and dried, and dye internalized by viable cells was determined at OD550. CC50 values were interpolated from the data.
Compounds #41, 46, 49, 55, 56, and 59 and the FDA-approved, anti-HCMV drug ganciclovir were subsequently evaluated with plaque reduction and toxicity assays in HFFs. HFFs were infected with HCMV in the presence of serial dilutions of the compounds. After 10 days the cultures were stained with neutral red and plaques were counted. Compound cytotoxicity for uninfected cells was determined in the same manner except that neutral red uptake by viable cells was measured by optical density. […] The TI values for the five NTS inhibitors of HCMV ranged from 5 for compound #46 to 17 for #55 and 59. Therefore, NTS inhibitors can suppress HCMV replication in addition to inhibiting the HSVs.

CC(C)c1ccc(O)c(=O)c(O)c1 [Compound 46, Beta-thujaplicinol]
Suppression of HSV-1 replication, standard conditions of infection ([1]; 50 μM throughout, relative to DMSO pre-treatment sample): 5.5 log10 | Effect of pre-incubation on virions / virus entry (in words) ([1]; pre-incubation 50 μM, 1 hour, 37° C.): not directly toxic to virions

Nc1nc2c(ncn2COCCO)c(=O)[nH]1 [ACV, Acyclovir, reference compound]
Delay of addition with no effect on inhibition of DNA replication or viral accumulation [2]: ≤ 5 hours post-infection | Time of addition at which compound becomes essentially ineffective [2]: 12 hours post-infection

Cc1cc(C2CCCCC2)n(O)c(=O)c1 [Compound 41, Ciclopirox, reference compound]
CC50 at 14 days [3]: 8.9 µM | CC50 at 10 days [4]: 2.9 µM
